Measurements published in ChEMBL document CHEMBL1201862, “PubChem BioAssay data set” (2004).
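Tested at 5 concentrations; 48 h exposure; 96-well plates; endpoints linearly interpolated, else capped at highest concentration. GI50 marks 50% less growth.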 Active and inactive are the calls of the source. Rule as the data show it: active = GI50 up to about 1.1 µM and inactive = higher.

Legend:
Test in all cases: DTP human tumour cell line panel, 48 h
CAKI-1 = system: CAKI-1
DU-145 = system: DU-145
HCC 2998 = system: HCC 2998
HOP-62 = system: HOP-62
HT-29 = system: HT-29
Hs-578T = system: Hs-578T
M14 = system: M14
NCI-H226 = system: NCI-H226
NCI-H23 = system: NCI-H23
NCI-H522 = system: NCI-H522
OVCAR-5 = system: OVCAR-5
PC-3 = system: PC-3
RXF 393 = system: RXF 393
SF-268 = system: SF-268
SW-620 = system: SW-620
HOP-92 = system: HOP-92
KM12 = system: KM12
U-251 = system: U-251
UACC-62 = system: UACC-62

Row | SMILES | GI50 (CAKI-1) | GI50 (DU-145) | GI50 (HCC 2998) | GI50 (HOP-62) | GI50 (HT-29) | GI50 (Hs-578T) | GI50 (M14) | GI50 (NCI-H226) | GI50 (NCI-H23) | GI50 (NCI-H522) | GI50 (OVCAR-5) | GI50 (PC-3) | GI50 (RXF 393) | GI50 (SF-268) | GI50 (SW-620) | GI50 (HOP-92) | GI50 (KM12) | GI50 (U-251) | GI50 (UACC-62)
1 | COC1CCON1C(=O)c1ccccc1 (stereo not given) | > 10 µM (inactive) | > 10 µM (inactive) | > 10 µM (inactive) | > 10 µM (inactive) | > 10 µM (inactive) | > 10 µM (inactive) | > 10 µM (inactive) | > 10 µM (inactive) | > 10 µM (inactive) | > 10 µM (inactive) | > 10 µM (inactive) | > 10 µM (inactive) | > 10 µM (inactive) | > 10 µM (inactive) | > 10 µM (inactive) |  |  |  | 
2 | COc1cc(-c2cc(=O)c3c(O)c(OC)c(OC)c(OC)c3o2)cc(OC)c1OC [GARDENIN] |  | > 100 µM (inactive) | 22.5 µM (inactive) | 3.43 µM (inactive) | > 100 µM (inactive) | 3.15 µM (inactive) | > 100 µM (inactive) | 13.7 µM (inactive) | 15.1 µM (inactive) | 9.55 µM (inactive) | > 68.9 µM (inactive) | > 100 µM (inactive) | 8.83 µM (inactive) | 8.71 µM (inactive) |  | 4.04 µM (inactive) | > 100 µM (inactive) | 3.01 µM (inactive) | 32.4 µM (inactive)
3 | Cc1cc2c(cc1C)[n+]([O-])c(C(F)(F)F)c(C(=O)c1ccccc1)[n+]2[O-] | 0.76 µM (active) | 1.62 µM (inactive) |  | 0.299 µM (active) | 1.71 µM (inactive) | 2.58 µM (inactive) | 3.73 µM (inactive) |  | 2.12 µM (inactive) | 2.99 µM (inactive) | 3.08 µM (inactive) | 2.09 µM (inactive) | 3.13 µM (inactive) | 1.91 µM (inactive) | 3.72 µM (inactive) | 0.167 µM (active) | 1.85 µM (inactive) | 2.67 µM (inactive) | 2.22 µM (inactive)
4 | CC(=O)O[C@H]1CC[C@@]2(C)C(=CC[C@@H]3[C@@H]2CC[C@]2(C)C(=N/O)/C(=C/c4ccc([N+](=O)[O-])cc4)C[C@@H]32)C1 | 1.39 µM (inactive) | 5.26 µM (inactive) |  | 17.3 µM (inactive) | 5.43 µM (inactive) | 2.39 µM (inactive) | 4.09 µM (inactive) | 7.66 µM (inactive) | 2.31 µM (inactive) | 2.08 µM (inactive) |  | 2.72 µM (inactive) | 32.4 µM (inactive) | 3.66 µM (inactive) | 6.24 µM (inactive) | 11.9 µM (inactive) | 5.22 µM (inactive) |  | 1.76 µM (inactive)
5 | N#CC(C#N)=C/C=C(\Sc1c(Cl)c(Cl)nc(Cl)c1Cl)c1ccc(Cl)cc1 | 14.5 µM (inactive) | 21.1 µM (inactive) |  | 29.2 µM (inactive) | 18 µM (inactive) | 15.7 µM (inactive) | 19.5 µM (inactive) | 23 µM (inactive) | 16.2 µM (inactive) | 18.8 µM (inactive) | 21.5 µM (inactive) | 30 µM (inactive) | 18.5 µM (inactive) | 19.6 µM (inactive) | 5.77 µM (inactive) | 26.5 µM (inactive) | 19.1 µM (inactive) | 16.8 µM (inactive) | 14.3 µM (inactive)
6 | CCCCCC1CC=CC(=O)O1 (stereo not given) | 3.72 µM (inactive) | 17.4 µM (inactive) |  | 4.36 µM (inactive) | 3.89 µM (inactive) | 18 µM (inactive) | 12 µM (inactive) |  | 5.69 µM (inactive) | 2.92 µM (inactive) | 6.84 µM (inactive) | 3.78 µM (inactive) | 4.49 µM (inactive) | 10.6 µM (inactive) | 4.1 µM (inactive) | 1.2 µM (inactive) | 4.39 µM (inactive) | 3.56 µM (inactive) | 11.5 µM (inactive)
